Data published in US9827316B2, “Cardiovascular disease treatment and prevention” (priority 2013, dated 2017).

Legend:
[1] = Nitric oxide gas bubbled through carrier, change in weight; format: physicochemical; conditions: NO bubbled 40 hr, 25 ° C.
Protocol: This example illustrates one technique for preparing a composition in accordance with one embodiment of the invention. An accurate amount of a carrier (HNC 167-62) (see below) was introduced into a system. The carrier weight used in these experiments was approximately 250 g and the vessel size was 500 ml. The vessel was equipped with a mechanical stirrer, gas inlet, and gas outlet and was previously purged with argon for about an hour. The temperature of the carrier was kept at about 25-30° C. NO gas regulated at 5 psi (1 psi is about 6,900 Pa) and was then introduced at a controlled rate of about 1 bubble/s with continuous stirring. […] After 6 hours, the weight of the carrier had increased by 0.15%, by 12 hours by 0.25%, and by 24 hours by 0.56%. These increases in weight were believed to be significant considering the relative small molecular weight of NO versus the carrier. […] The carrier also can solidify upon cooling if the carrier is initially a solid at lower temperature.
Each carrier was taken in a 500 mL three necked flask equipped with a mechanical stirrer, gas inlet and a gas outlet. The system was purged with argon for one hour at room temperature (25° C.). Then nitric oxide gas was bubbled into the system. Then, nitric oxide gas was bubbled through carrier for stipulated amount of time. The changes in weight and color were noted. […]

[2] = Laser Doppler capillary blood flow in humans, 10,000 ppm NO in closed chamber (Example 5); format: in vivo, human; conditions: positive control, 1/10% in alcohol applied to skin
Description: The formulation used in these studies contained nitric oxide dispersed in a lipid matrix. […] Nitric oxide is a very rapid acting molecule, and these studies used a system that employed laser Doppler with a covered chamber. The formulation was placed into the chamber and then attached to the skin by an adhesive layer on the covering. This provided a stable measuring device as determined by multiple normal evaluations of the capillary blood flow without treatment of nitric oxide.
A known positive control, methyl nicotinate, was applied to the skin at a concentration of 1/10% in alcohol. […] The vascular dynamics are such that when the blood vessels dilate physical parameters follow Bernoulli's law. This states that as one increases the diameter of a tube containing a liquid to flow will increase but the pressure and the speed of the liquid will decrease. The laser Doppler device accurately measured these parameters.
The test product was labeled as 10,000 ppm NO (nitric oxide). The study participants had 100 mg of the test product applied in a closed Hilltop chamber on the forearm. […]
A Moor Instruments DRT4 Laser Doppler Blood Flow Monitor (Devon, England) was used in these studies. The laser Doppler technique measured blood flow in the microcapillaries of the skin that are close to the skin surface and the blood flow in underlying arterioles and venules that help to regulate skin temperature. […]

[3] = Laser Doppler circulation in five human subjects (Example 8); format: in vivo; conditions: positive control formulation, 0.1%
Description: This example illustrates delivery of nitric oxide formulations to five human subjects, using procedures and formulations similar to those discussed in Example 5. Each person served as their own control for the testing. A Moor Instruments Laser Doppler was used to determine circulation. […] The formulations used produce positive, almost immediate results when applied to the skin which, in these studies, was manifested by vasodilatation of the cutaneous vascular system.
For each subject, the following creams were applied: a negative control formulation (containing no NO), 0.010 gram of a 10,000 ppm NO formulation, 0.020 gram of a 10,000 ppm NO formulation, and a positive control formulation containing 0.1% methyl nicotinate. The formulations were prepared using procedures similar to those discussed in Example 1.

With OCCCO [1,3-Propanediol, 1,3-propanediol] the “% Wt. gain” value [1] was 0.09%.

For COC(=O)c1cccnc1 [methyl nicotinate], the “laser Doppler response of skin blood flow” value [2] was “rapid response typical of the vasodilator” and the vasodilatation [3] was “vasodilatation was observed”.
